Calls of active or inactive are those of the source.
Legend:
[1] = molecular target: T1, DNA repair and recombination protein RAD54-like (Homo sapiens, UniProt Q92698); experiment: RAD54 Holliday junction migration blockers – biochemical, fluorescence, cherry-picked samples, dose series, confirmation (AID 651657); format: functional
T1 sequence (Q92698 whole entry): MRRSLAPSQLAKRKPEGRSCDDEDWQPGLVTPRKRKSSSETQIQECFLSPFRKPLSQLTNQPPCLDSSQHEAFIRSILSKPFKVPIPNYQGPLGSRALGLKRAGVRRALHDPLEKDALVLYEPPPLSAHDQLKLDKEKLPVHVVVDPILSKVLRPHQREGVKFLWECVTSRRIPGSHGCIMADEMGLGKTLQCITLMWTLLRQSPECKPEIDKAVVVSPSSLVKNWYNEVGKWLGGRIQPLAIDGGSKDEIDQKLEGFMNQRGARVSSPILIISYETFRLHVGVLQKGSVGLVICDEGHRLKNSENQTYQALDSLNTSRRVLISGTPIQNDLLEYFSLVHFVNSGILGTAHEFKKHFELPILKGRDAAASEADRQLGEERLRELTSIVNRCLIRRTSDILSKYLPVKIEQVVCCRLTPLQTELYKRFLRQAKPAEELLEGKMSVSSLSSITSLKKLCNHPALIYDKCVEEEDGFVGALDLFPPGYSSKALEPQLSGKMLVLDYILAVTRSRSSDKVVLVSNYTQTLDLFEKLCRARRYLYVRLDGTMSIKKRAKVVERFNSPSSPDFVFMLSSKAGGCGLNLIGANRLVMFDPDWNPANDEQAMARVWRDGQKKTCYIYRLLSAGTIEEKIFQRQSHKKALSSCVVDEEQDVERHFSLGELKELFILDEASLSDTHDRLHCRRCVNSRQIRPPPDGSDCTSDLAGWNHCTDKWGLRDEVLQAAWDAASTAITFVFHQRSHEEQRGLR

[2] = molecular target: T2, High affinity choline transporter 1 (Homo sapiens, UniProt Q9GZV3); experiment: human choline transporter blockers, potency – cell-based, 5-point CRC, membrane potential dye, dose response (AID 504840); format: functional
T2 sequence (Q9GZV3 whole entry): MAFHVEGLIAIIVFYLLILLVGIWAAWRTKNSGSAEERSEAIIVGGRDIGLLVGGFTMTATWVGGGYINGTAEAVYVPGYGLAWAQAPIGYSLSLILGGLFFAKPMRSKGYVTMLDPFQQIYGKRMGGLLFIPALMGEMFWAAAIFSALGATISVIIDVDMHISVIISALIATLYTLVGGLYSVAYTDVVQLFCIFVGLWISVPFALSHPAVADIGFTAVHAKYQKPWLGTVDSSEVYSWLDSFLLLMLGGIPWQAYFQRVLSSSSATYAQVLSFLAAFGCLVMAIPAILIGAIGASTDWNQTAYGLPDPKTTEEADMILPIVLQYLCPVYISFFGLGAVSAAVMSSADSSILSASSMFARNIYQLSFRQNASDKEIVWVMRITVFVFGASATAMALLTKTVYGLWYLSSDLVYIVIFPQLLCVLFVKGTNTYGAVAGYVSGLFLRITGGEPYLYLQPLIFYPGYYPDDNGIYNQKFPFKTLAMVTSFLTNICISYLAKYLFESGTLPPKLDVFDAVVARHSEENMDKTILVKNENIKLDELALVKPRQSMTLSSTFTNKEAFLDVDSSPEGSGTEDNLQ

[3] = molecular target: T3, Replicative DNA helicase DnaB (Mycobacterium tuberculosis, UniProt P9WMR3); experiment: DnaB intein splicing inhibitors, dose response, biochemical, cell-free fluorescence (AID 449749); format: functional
T3 sequence (P9WMR3 whole entry): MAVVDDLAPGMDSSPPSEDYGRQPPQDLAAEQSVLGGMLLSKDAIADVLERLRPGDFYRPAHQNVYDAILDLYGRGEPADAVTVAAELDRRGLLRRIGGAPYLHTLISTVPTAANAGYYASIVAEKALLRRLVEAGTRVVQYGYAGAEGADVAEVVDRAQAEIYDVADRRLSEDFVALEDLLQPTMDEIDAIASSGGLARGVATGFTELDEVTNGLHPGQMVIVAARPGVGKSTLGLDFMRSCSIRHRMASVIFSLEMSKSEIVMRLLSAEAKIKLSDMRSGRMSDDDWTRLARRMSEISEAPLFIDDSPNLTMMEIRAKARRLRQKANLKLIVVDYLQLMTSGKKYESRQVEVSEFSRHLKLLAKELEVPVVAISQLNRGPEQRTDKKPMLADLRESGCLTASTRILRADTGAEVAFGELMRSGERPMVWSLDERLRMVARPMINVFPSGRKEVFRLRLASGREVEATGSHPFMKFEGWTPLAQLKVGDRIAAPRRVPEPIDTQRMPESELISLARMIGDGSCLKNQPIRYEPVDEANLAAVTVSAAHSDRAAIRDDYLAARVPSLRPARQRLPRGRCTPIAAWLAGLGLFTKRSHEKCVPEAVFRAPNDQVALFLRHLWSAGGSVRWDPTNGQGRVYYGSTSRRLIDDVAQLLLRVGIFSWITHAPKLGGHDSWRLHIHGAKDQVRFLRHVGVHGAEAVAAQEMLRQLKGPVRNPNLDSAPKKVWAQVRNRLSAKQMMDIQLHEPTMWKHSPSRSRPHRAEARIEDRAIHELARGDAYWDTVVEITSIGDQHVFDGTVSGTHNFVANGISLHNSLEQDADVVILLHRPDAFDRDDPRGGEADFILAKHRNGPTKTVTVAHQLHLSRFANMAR

Nonstructural protein 1 = Nonstructural protein 1 (Influenza A virus, UniProt Q194T2); format: functional, Influenza A virus (A/California/07/2009(H1N1))
Sequence of Nonstructural protein 1 (Q194T2 whole entry): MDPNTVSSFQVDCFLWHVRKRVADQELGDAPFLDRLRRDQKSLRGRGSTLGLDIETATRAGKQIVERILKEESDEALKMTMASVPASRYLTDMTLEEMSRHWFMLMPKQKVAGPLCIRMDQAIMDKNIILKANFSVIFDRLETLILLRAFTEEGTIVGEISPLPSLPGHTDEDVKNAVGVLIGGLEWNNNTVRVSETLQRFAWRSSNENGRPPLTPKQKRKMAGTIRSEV

Prothrombin = Prothrombin (Bos taurus, UniProt P00735); experiment: thrombin protease inhibitors – biochemical, fluorescence polarization, uHTS hits, dose response (AID 602369); format: functional
Protein RecA = molecular target: T4, Protein RecA (Mycobacterium tuberculosis, UniProt P9WHJ3); experiment: Fluorescence Cell-Free Homogeneous Dose Retest to Identify Inhibitors of RecA-Intein Splicing Activity. [Related pubchem assays (depositor defined):AID2097, AID2223, AID489010, AID492950]; format: functional
T4 sequence (P9WHJ3 whole entry): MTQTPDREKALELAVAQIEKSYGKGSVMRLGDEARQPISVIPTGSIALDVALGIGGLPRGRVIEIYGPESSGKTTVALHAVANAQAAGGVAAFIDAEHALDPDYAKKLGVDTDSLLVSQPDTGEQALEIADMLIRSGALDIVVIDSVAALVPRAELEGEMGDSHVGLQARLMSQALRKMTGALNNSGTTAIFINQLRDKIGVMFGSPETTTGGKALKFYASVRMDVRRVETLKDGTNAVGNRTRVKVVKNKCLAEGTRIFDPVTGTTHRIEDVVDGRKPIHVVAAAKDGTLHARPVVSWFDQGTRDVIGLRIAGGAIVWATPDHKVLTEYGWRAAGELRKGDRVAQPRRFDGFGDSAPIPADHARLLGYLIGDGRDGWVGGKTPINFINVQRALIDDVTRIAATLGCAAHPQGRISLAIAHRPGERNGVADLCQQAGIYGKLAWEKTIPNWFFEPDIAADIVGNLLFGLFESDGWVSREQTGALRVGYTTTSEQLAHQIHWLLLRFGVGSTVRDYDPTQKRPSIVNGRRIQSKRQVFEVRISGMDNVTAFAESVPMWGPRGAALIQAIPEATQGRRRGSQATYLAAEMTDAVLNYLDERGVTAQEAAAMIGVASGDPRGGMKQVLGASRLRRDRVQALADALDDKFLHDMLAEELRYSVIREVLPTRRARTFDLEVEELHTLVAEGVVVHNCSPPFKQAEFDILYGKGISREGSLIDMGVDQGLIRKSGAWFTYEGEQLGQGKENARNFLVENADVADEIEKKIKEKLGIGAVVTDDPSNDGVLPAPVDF

[4] = molecular target: 26S proteasome non-ATPase regulatory subunit 14 (Homo sapiens, UniProt O00487); experiment: inhibition of proteasome subunit RPN11 – biochemical, fluorescence polarization, uHTS hits, confirmation (AID 602368); format: functional
Sequence of 26S proteasome non-ATPase regulatory subunit 14 (O00487 whole entry): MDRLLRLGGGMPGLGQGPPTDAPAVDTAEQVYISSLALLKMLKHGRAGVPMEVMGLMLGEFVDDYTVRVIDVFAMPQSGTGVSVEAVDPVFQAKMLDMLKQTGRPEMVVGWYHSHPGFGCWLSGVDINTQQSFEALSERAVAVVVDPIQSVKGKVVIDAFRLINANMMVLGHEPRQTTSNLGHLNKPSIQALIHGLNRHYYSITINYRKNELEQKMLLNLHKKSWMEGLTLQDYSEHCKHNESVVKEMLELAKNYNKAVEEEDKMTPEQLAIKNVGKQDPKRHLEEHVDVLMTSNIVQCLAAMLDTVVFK

[5] = molecular target: 72 kDa type IV collagenase (Homo sapiens, UniProt P08253); experiment: Dose Response validation of uHTS RPN11 inhibitor hits using a MMP-2 Fluorescence assay.; format: functional
Sequence of 72 kDa type IV collagenase (P08253 whole entry): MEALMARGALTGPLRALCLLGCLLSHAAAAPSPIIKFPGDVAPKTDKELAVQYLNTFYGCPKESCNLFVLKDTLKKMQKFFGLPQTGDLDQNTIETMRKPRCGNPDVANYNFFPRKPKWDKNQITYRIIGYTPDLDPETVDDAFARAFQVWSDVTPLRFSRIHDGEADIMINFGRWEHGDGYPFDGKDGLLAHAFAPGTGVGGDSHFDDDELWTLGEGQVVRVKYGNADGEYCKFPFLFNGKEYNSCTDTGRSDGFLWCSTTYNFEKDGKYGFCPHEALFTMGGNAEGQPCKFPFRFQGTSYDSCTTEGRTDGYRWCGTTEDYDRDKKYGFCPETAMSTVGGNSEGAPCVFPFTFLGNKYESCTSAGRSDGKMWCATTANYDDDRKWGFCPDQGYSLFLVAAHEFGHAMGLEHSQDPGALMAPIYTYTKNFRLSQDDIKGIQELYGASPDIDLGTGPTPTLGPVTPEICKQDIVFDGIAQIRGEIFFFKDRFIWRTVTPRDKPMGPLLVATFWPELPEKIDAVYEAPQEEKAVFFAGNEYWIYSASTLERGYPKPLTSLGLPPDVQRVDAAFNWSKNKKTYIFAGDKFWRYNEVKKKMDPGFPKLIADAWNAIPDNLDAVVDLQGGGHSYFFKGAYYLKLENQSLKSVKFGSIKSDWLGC

[6] = molecular target: T5, Heat shock factor protein 1 (Mus musculus, UniProt P38532); experiment: decrease of HSF1-responsive luciferase luminescence – cell-based, NIH3T3, dose retest, confirmation (AID 2382); format: functional;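 further: NIH3T3 fibroblasts with HSF1-driven luciferase reporter stressed by proteasome inhibitor MG132; luminescence from HSF1-driven luciferase expression after 8 hours of MG132 stress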
T5 sequence (P38532 whole entry): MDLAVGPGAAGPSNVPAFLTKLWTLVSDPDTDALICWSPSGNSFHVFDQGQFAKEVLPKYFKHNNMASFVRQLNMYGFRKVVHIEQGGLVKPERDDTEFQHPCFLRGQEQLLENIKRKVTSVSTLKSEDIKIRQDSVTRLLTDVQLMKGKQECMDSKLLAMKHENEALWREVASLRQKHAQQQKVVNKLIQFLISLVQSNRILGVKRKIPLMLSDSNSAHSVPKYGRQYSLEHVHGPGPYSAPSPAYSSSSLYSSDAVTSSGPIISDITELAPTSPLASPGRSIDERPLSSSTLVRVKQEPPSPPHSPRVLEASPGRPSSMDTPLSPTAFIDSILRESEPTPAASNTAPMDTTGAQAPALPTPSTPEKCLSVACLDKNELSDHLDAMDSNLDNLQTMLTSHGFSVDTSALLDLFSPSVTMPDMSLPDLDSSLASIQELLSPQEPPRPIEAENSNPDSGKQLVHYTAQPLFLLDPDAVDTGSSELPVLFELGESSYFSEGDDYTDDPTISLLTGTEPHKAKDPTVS

[7] = molecular target: T6, Corticotropin-releasing factor receptor 2/Corticotropin-releasing factor-binding protein (Homo sapiens, UniProt P24387+Q13324); experiment: Dose Response confirmation of uHTS hits for small molecule antagonists of the CRF-binding protein and CRF-R2 receptor complex.; format: functional; settings: read-out: IC50_Mean
T6 sequence (Q13324 whole entry): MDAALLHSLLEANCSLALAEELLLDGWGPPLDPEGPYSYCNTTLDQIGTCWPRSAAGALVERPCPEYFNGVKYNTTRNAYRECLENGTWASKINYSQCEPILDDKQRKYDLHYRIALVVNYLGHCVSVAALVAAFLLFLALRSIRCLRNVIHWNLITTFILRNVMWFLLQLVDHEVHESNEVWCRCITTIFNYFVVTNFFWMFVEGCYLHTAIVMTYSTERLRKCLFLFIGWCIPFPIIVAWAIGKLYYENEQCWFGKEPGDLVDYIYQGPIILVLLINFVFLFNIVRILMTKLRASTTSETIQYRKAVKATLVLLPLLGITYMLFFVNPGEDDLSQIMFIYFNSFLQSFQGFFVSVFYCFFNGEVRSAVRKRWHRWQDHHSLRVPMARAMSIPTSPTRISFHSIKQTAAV
T6 sequence (P24387 whole entry): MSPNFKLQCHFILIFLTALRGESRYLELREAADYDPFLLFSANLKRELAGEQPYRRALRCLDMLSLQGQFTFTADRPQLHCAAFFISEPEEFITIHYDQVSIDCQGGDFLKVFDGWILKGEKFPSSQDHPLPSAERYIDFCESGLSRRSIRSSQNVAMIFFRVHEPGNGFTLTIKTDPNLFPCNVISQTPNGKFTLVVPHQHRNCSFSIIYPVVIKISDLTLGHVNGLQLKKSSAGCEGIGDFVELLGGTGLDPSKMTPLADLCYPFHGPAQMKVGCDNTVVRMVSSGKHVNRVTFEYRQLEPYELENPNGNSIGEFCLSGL

[8] = blockers of CRF-binding protein–CRF-R2 complex – cell-based, uHTS hits, 384-well, dose response (AID 651639); format: functional, Homo sapiens; settings: read-out: IC50_Mean
[9] = molecular target: T6, Corticotropin-releasing factor receptor 2/Corticotropin-releasing factor-binding protein; experiment: activators of CRF receptor 2 with binding protein – uHTS hits, confirmation (AID 602473); format: functional; settings: read-out: EC50_Mean
[10] = nonselective StAR promoter luciferase inhibitors – cell-based, luminescence, luciferase reporter, counter-screen for LRH-1 inverse agonist project, dose response (AID 651969); format: functional
[11] = molecular target: T7, Carboxy-terminal domain RNA polymerase II polypeptide A small phosphatase 1 (Homo sapiens, UniProt Q9GZU7); experiment: CTDSP1 inhibitors, concentration-response, biochemical, absorbance readout, ultra-high-throughput screen actives (AID 540297); format: functional
T7 sequence (Q9GZU7 whole entry): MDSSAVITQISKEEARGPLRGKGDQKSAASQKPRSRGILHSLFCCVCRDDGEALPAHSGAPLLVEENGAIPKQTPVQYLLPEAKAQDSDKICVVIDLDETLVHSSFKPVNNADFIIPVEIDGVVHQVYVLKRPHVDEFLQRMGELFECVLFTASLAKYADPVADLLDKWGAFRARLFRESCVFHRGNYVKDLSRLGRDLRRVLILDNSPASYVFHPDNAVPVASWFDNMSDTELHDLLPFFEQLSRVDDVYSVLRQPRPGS

Compound: CCN1CCN(C(S)=Nc2ccc3nc(N4CCN(CC)CC4)cc(C)c3c2)CC1
- AC50 [1]: 95 µM (active)

Compound: COc1cc(/C=C2/C(=O)N(c3cccc(Br)c3)N=C2C)cc(OC)c1O
- IC50 [2]: 13.8 µM (active)
- AC50 [3]: 3.93 µM (active)
- IC50 (Nonstructural protein 1): 14.5 µM (active)
- IC50 (Prothrombin): 39 µM (active)
- EC50 (Protein RecA): 1.6 µM (active)
- IC50 [4]: 23.1 µM (active)
- IC50 [5]: > 100 µM (inactive)

Compound: COc1ccc(CNC(=O)c2nnn(CC(=O)Nc3cc(C)cc(C)c3)c2N)cc1
- IC50 (Prothrombin): 63 µM (active)
- EC50 [6]: > 195 µM (not active)
- IC50 [4]: 18.9 µM (active)
- IC50 [5]: > 100 µM (inactive)

Compound: Cc1cc(C)cc(Nc2c(F)c(F)c(F)c(F)c2C(=O)O)c1
- IC50 [7]: 31.2 µM (active)
- IC50 [8]: 3.74 µM (active)
- EC50 [9]: > 53 µM (inactive)

Compound: COc1ccc(NC(=O)CSc2sc3c(O)cc(O)nc3c2C#N)c(OC)c1
- IC50 [10]: 35.9 µM (inactive)

Compound: Cc1ccc(S(=O)(=O)N2c3ccccc3OCC2c2ccccc2)cc1 (stereo not drawn)
- IC50 [7]: < 0.368 µM (active)
- IC50 [8]: > 20 µM (inactive)
- EC50 [9]: > 53 µM (inactive)

Compound: CSc1ccc(NC(=O)CSc2nc3[nH]c(=O)cc(O)c3s2)cc1
- IC50 [11]: 4.06 µM (active)
- IC50 (Prothrombin): 88.3 µM (active)
- IC50 [4]: 68 µM (active)
- IC50 [5]: 40.4 µM (active)
